Experimental data reported in US20240350476A1 (priority 2023, published 2024).

Tests used:
[1] = Method: Six volunteer subjects who are regular users of nicotine pouches containing 8 mg of nicotine were each administered an oral pouch of the disclosure containing 3 mg of 6-methylnicotine. Each subject used the 6-methylnicotine pouch in the same manner as a nicotine pouch, by placing the pouch inside the mouth and adjacent to the lip and gum.
[2] = oral dissolvable film containing 1.6 mg of 6-methylnicotine, placed inside the cheek, compared to a film containing 2 mg of nicotine; four volunteer subjects, self-reported
Method: Four volunteer subjects were provided with an oral dissolvable film according to the disclosure containing 1.6 mg of 6-methylnicotine and an oral dissolvable film containing 2 mg of nicotine. Each subject placed the nicotine strip against the inside of their cheek and noted their physiological response. Subjects abstained from nicotine or tobacco usage for 1 hour after consuming the nicotine strip, then placed the 6-methylnicotine strip according to the disclosure against the inside of their cheek and noted their physiological response.

[3] = measured approximately 1 minute after placing the pouch adjacent to the gum line; five blindfolded volunteer subjects, one-hour break between tests
Method: Five volunteer subjects compared the effects of nicotine consumption and 6-methylnicotine consumption on blood pressure Subjects were blindfolded and had their blood pressure measured before using a pouch (to provide a baseline blood pressure) and re-measured approximately 1 minute after placing a nicotine pouch or a 6-methylnicotine pouch adjacent to the gum line. All subjects performed the test with a nicotine pouch and with a 6-methylnicotine pouch on the same day with a one-hour break between the tests.

SMILES: Cc1ccc([C@@H]2CCCN2C)cn1 (stereo in doubt) [6-methylnicotine]
- physiological effect, such as a "head rush" experienced during pouch usage ([1]; in vivo, po): more potent physiological effect
- desire to use nicotine- or tobacco-based products after use of the pouch ([1]; oral pouch containing 3 mg of 6-methylnicotine, six volunteer subjects who regularly use 8 mg nicotine pouches, self-reported): zero desire to use nicotine- or tobacco-based products
- physiological response (as a perceived "head rush") [2]: stronger physiological response
- blood pressure following usage of a 6-methylnicotine pouch versus a nicotine pouch [3]: No significant difference
